# Data: the supplement of paper PMC10307832
# Key:
# Assay in all cases: relative viability (nuclei count vs DMSO), 5 days (fraction); higher = more cells survive
# [1] = compound: O=S(=O)(c1ccccc1)N(CC(F)(F)F)c1ccc(C(O)(C(F)(F)F)C(F)(F)F)cc1 + Cc1nc(NC(=O)N2CCC[C@H]2C(N)=O)sc1-c1ccnc(C(C)(C)C(F)(F)F)c1 [Alpelisib] (partner 2 µM)
# In short: (§1)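 Relative viability equals treated-well nuclei counts divided by vehicle-well nuclei counts. Counts came from 4× images of lung cancer cell lines grown in 1536-well plates for 5 days after pin-tool dosing on the day after seeding. Dosing used one drug alone or a fixed anchor-drug dose plus five library-drug doses (not always all listed) in √10 steps, and values are medians of duplicate plates.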
# RO-3306 + Dasatinib = compound: C1=CC2=C(C=CC(=C2)C=C3C(=O)NC(=NCC4=CC=CS4)S3)N=C1 [RO-3306] + Cc1nc(Nc2ncc(C(=O)Nc3c(C)cccc3Cl)s2)cc(N2CCN(CCO)CC2)n1 [Dasatinib] (partner 0.075 µM)
# In short: as §1
# [2] = compound: O=S(=O)(c1ccccc1)N(CC(F)(F)F)c1ccc(C(O)(C(F)(F)F)C(F)(F)F)cc1 + Nc1ncn([C@H]2C[C@H](O)[C@@H](CO)O2)c(=O)n1 [Decitabine] (partner 2 µM)
# In short: as §1
# [3] = compound: O=S(=O)(c1ccccc1)N(CC(F)(F)F)c1ccc(C(O)(C(F)(F)F)C(F)(F)F)cc1 + COc1cccc2cc(-c3nc([C@H]4CC[C@H](C(=O)O)CC4)n4ncnc(N)c34)[nH]c12 [OSI-027] (partner 0.5 µM)
# In short: as §1
# RO-3306 + Bortezomib = compound: C1=CC2=C(C=CC(=C2)C=C3C(=O)NC(=NCC4=CC=CS4)S3)N=C1 [RO-3306] + CC(C)C[C@H](NC(=O)[C@H](Cc1ccccc1)NC(=O)c1cnccn1)B(O)O [Bortezomib] (partner 0.002 µM)
# In short: as §1
Cell Line,relative viability ([1]; first compound 0.8 µM),relative viability ([1]; first compound 2.53 µM),relative viability ([1]; first compound 8 µM),relative viability (RO-3306 + Dasatinib; first compound 0.01 µM),relative viability (RO-3306 + Dasatinib; first compound 0.03162 µM),relative viability (RO-3306 + Dasatinib; first compound 0.1 µM),relative viability (RO-3306 + Dasatinib; first compound 0.3162 µM),relative viability (RO-3306 + Dasatinib; first compound 1 µM),relative viability ([2]; first compound 2.53 µM),relative viability ([2]; first compound 8 µM),relative viability ([3]; first compound 0.8 µM),relative viability ([3]; first compound 2.53 µM),relative viability ([3]; first compound 8 µM),relative viability (RO-3306 + Bortezomib; first compound 0.01 µM),relative viability (RO-3306 + Bortezomib; first compound 0.03162 µM),relative viability (RO-3306 + Bortezomib; first compound 0.1 µM),relative viability (RO-3306 + Bortezomib; first compound 0.3162 µM),relative viability (RO-3306 + Bortezomib; first compound 1 µM),relative viability ([2]; first compound 0.8 µM)
PC-3 [JPC-3],1.18,0.995,1.02,1.02,0.799,0.953,0.991,0.819,0.817,0.826,0.864,0.744,0.785,0.936,0.82,0.965,0.865,0.805,–
PC-14,0.829,0.697,0.525,0.239,0.359,0.232,0.243,0.212,0.19,0.209,0.991,0.886,0.44,1.16,–,0.991,0.941,0.865,0.197
RERF-LC-KJ,0.857,0.701,0.858,0.919,0.667,0.907,0.881,0.915,0.701,0.687,0.545,0.599,0.556,1.3,0.952,1.01,0.987,1.01,0.752
SK-LU-1,1.16,1.23,0.903,0.14,0.177,0.18,0.198,0.151,0.63,0.703,0.355,0.286,0.358,0.767,0.932,1.08,1.34,0.853,0.669
SW 1573,0.889,0.697,0.757,0.455,–,0.466,0.497,0.429,0.543,0.541,0.863,0.619,0.487,1.22,–,0.924,0.972,0.894,0.542
